Experimental findings from patent publication US8735444B2, “Fluorinated rhodamines as photostable fluorescent dyes for labelling and imaging techniques” (Max-Planck-Gesellschaft zur Foerderung der Wissenschaften …, priority 2009, dated 2014) are described below.

Marks after values point to notes of the source that are not given here.

Data set [1] in a line: Spectral properties of the fluorinated rhodamines (absorption, emission, quantum yield, lifetime). The class given is physicochemical.
Text: Extinction coefficients (of the long wavelength maximum) which are lower than ca. 8×10^4 M^−1 cm^−1 indicate the presence of the closed non-fluorescent form.
For data set [2], the system named is living mammalian cells (PtK2). Briefly: Membrane-permeation experiments in living cells, epifluorescence microscope. Type of data set: cell-based. The note with it: for Structures stained in living cells: 15 minutes. On the procedure:
FIG. 9. Membrane-permeation experiments of the presented dyes. Living mammalian cells (PtK2) were incubated for 15 minutes with a 50 μg dye/ml solution. The subcellular localization of the dye was imaged in an epifluorescence microscope. A: 46-H—CH2 CF3—H—H (16); B: 42-COOH (15); C: 23; D: 37-Me-Me-H (27); E: 42-H (14)-methylester; F: 33-H—H (18).
The most important prerequisite for fluorophores used in these labeling strategies is that sufficient amounts of it need to pass cellular membrane(s) to reach the target protein. In order to asses the permeability of the cell membrane to the fluorescent dyes described in the presented invention, living mammalian cells (PtK2) previously grown overnight on cover slips, were first subjected to either 500 μg dye/ml or 50 μg dye/ml in growth medium for 15 minutes. (The amount of dye used for labeling of SNAP-fusion proteins is below 5 μg dye/ml.) Then, the cells were washed with growth medium (without dye) for 15 minutes, and imaged using an epifluorescence microscope.

The mark [3] stands for this setting: adding methanol to an aqueous buffer.
Setting [4] is: value for the closed form, methanol.

In the case of “2,7-Difluoro-5′(6′)-methoxycarbonyl-N,N,N′,N′-tetramethyl-rhodamine [Compound 28]”, the “ABSORPTION λMAX” value in data set [1] (a + b (aqueous buffer at pH 7 + methanol)) came out at 558 nm. Besides, in data set [1] (setting [3]), the “bathochromic shift in absorption maximum” value is listed as 23 nm and the “bathochromic shift in emission maximum” value was found to be 35 nm. Further, in data set [1] (aqueous buffer at pH 7), the ABSORPTION ε amounted to 31000 M⁻¹ cm⁻¹, the “ABSORPTION λMAX” value was 525 nm and the “EMISSION λMAX” value was determined as 554 nm. In data set [1] (methanol), the “EMISSION λMAX” value was determined as 589 nm. The “Structures stained in living cells” value in data set [2] (500 μg dye/ml) was “Red cytoplasmatic and mitochondrial”.
As to `O=C1OC2(c3cc(F)c(NCC(F)(F)F)cc3Oc3cc(NCC(F)(F)F)c(F)cc32)c2ccccc21` [Compound 18, 2,7-Difluoro-N,N′-bis(2,2,2-trifluoroethyl)rhodamine], in data set [1] (aqueous buffer at pH 7), the “ABSORPTION λMAX” value stood at 494 nm, the “EMISSION λMAX” value stood at 521 nm, the ΦFL is 1.00 and the τFL is on record as 3.8 ns. Besides, in data set [1] (methanol), the ABSORPTION ε is 41000 M⁻¹ cm⁻¹, the “ABSORPTION λMAX” value is given as 500 nm and the “EMISSION λMAX” value was found to be 519 nm. Besides, in data set [1] (setting [4]), the “ABSORPTION λMAX” value was “(292)^2b nm”. Moreover, the “Structures stained in living cells” value in data set [2] (50 μg dye/ml) was “Dim cytoplasmatic stain with bright”.
“N,N-Bis(2,2,2-trifluoroethyl)rhodamine [Compound 14]”: in data set [1] (aqueous buffer at pH 7), the ABSORPTION ε amounted to 81000 M⁻¹ cm⁻¹, the “ABSORPTION λMAX” value is on record as 499^a nm, the “EMISSION λMAX” value is recorded as 522^ nm and the ΦFL amounted to 0.88. In addition, in data set [1] (aqueous buffer at pH 7), the τFL worked out at 3.9 ns. For the same compound, in data set [2] (500 μg dye/ml), the “Structures stained in living cells” value is given as “Nearly no stain visible”.
With `CN(CC(F)(F)F)c1cc2c(cc1F)C1(OC(=O)c3ccccc31)c1cc(F)c(N(C)CC(F)(F)F)cc1O2` [Compound 25, 2,7-Difluoro-N,N-dimethyl-N,N-bis(2,2,2-trifluoromethyl)-rhodamine], the “fluorescence efficiency of the open acidic form” value in data set [1] (acidic solutions) was “relatively low fluorescence efficiency”. Further, in data set [1] (measured at pH 1), the ΦFL result is recorded as “(0.20)^1” and the τFL result is reported as “(1.2)^1 ns”. Moreover, in data set [1] (measured at pH 1, aqueous), the “ABSORPTION ε” value is on record as “(3.2)^1a (M^−1 cm^−1) × 10^−4”, the “ABSORPTION λMAX” value was 528 nm and the “EMISSION λMAX” value was “(557)^1a nm”. Moreover, the colour of solutions result in data set [1] (methanol, water and neutral buffers) is on record as “colorless solutions”. Besides, the “ABSORPTION λMAX” value in data set [1] (setting [4]) was 300 nm. In addition, in data set [2] (500 μg dye/ml), the “Structures stained in living cells” value was “Only dim stain visible”.
Turning to `O=C(O)c1ccc2c(c1)C1(OC2=O)c2ccc(NCC(F)(F)F)cc2Oc2cc(NCC(F)(F)F)ccc21` [15 (43-COOH), 6′-carboxy-N,N′-bis(2,2,2-trifluoroethyl)rhodamine], in data set [1] (aqueous buffer at pH 7), the ABSORPTION ε amounted to 88000 M⁻¹ cm⁻¹, the “ABSORPTION λMAX” value stood at 501 nm, the “EMISSION λMAX” value came to 523 nm and the ΦFL was 0.93. In addition, in data set [1] (methanol), the “ABSORPTION λMAX” value is given as 497 nm and the “EMISSION λMAX” value is given as 522 nm. Moreover, in data set [2] (500 μg dye/ml, listed as 43-COOH (15)), the “Structures stained in living cells” value was “Nearly no stain visible”.
Regarding `Nc1cc2c(cc1F)C1(OC(=O)c3ccccc31)c1cc(F)c(N)cc1O2` [Compound 10, 2,7-Difluororhodamine], in data set [1] (aqueous buffer at pH 7), the “ABSORPTION λMAX” value worked out at 494 nm, the “EMISSION λMAX” value amounted to 520 nm, the ΦFL is given as 0.87 and the τFL is 3.9 ns. In data set [1] (methanol), the ABSORPTION ε worked out at 41000 M⁻¹ cm⁻¹, the “ABSORPTION λMAX” value stood at 498 nm and the “EMISSION λMAX” value turned out to be 522 nm. Also, in data set [2] (500 μg dye/ml), the “Structures stained in living cells” value is given as “High background staining visible”.
Turning to “5′(6′)-Carboxy-2,7-difluoro-N,N′-dimethylrhodamine [Compound 24]”, in data set [1] (aqueous buffer at pH 7), the “ABSORPTION λMAX” value was 515^a, 515^b nm; the “EMISSION λMAX” value was found to be 543 nm; the ΦFL is recorded as 0.86; the τFL is on record as 4.1 ns. Moreover, in data set [1] (methanol), the ABSORPTION ε is 56000 M⁻¹ cm⁻¹; the “ABSORPTION λMAX” value is 515^a, 515^b nm; the “EMISSION λMAX” value is 538 nm. Moreover, in data set [2] (500 μg dye/ml), the “Structures stained in living cells” value is reported as “Cellular stain visible; bright”.
Regarding “5′,(6′)-Carboxy-2,7-difluoro-N,N″-bis(2,2,2-trifluoroethyl)-4,5-disulforhodamine [Compound 21]”, in data set [1] (aqueous buffer at pH 7), the “ABSORPTION λMAX” value was determined as 509 nm, the “EMISSION λMAX” value came to 533 nm, the ΦFL stood at 0.86 and the τFL was found to be 3.3 ns. Also, in data set [1] (methanol), the ABSORPTION ε worked out at 42000 M⁻¹ cm⁻¹, the “ABSORPTION λMAX” value turned out to be 517 nm and the “EMISSION λMAX” value is reported as 541 nm. Also, the “Structures stained in living cells” value in data set [2] (50 μg dye/ml) is “Dim cytoplasmatic stain with dots”. In addition, the “Structures stained in living cells” value in data set [2] (500 μg dye/ml) was “Cytoplasmatic and mitochondrial”.
Regarding `CN(C)c1cc2c(cc1F)C1(OC(=O)c3ccccc31)c1cc(F)c(N(C)C)cc1O2` [Compound 27, 2,7-Difluoro-N,N,N′,N′-tetramethylrhodamine], the “fluorescence in aqueous buffer” value in data set [1] (aqueous buffer) is “nearly non-fluorescent”. In data set [1] (aqueous buffer at pH 7), the ABSORPTION ε was 50000 M⁻¹ cm⁻¹, the “ABSORPTION λMAX” value stood at 554 nm, the “EMISSION λMAX” value worked out at 586 nm and the ΦFL was 0.02. Moreover, the τFL in data set [1] (aqueous buffer at pH 7) was determined as 3.3 ns. Further, in data set [1] (methanol), the “ABSORPTION λMAX” value is given as 546 nm and the “EMISSION λMAX” value is 576 nm. Besides, the “Structures stained in living cells” value in data set [2] (500 μg dye/ml) was “Red cytoplasmatic and mitochondrial”. Moreover, the “fluorescence signal inside the living cells” value in data set [2] (compared with aqueous buffer, Example 12, FIG. 9D) is listed as “considerably stronger”.
“5′ (6′)-Carboxy-2,7-difluoro-4,5-disulforhodamine [Compound 13]”: in data set [1] (aqueous buffer at pH 7), the “ABSORPTION λMAX” value is on record as 490 nm, the “EMISSION λMAX” value was found to be 514 nm, the ΦFL came to 0.97 and the τFL was 4.1 ns. In data set [1] (methanol), the ABSORPTION ε was 32000 M⁻¹ cm⁻¹, the “ABSORPTION λMAX” value is given as 502 nm and the “EMISSION λMAX” value turned out to be 517 nm. Further, in data set [2] (50 μg dye/ml), the “Structures stained in living cells” value is on record as “Dim cytoplasmatic stain with dots”. For the same compound, the “Structures stained in living cells” value in data set [2] (500 μg dye/ml) is “Nearly no stain visible”.
Turning to “5′(6′)-Carboxy-2,7-difluororhodamine [Compound 11]”, in data set [1] (aqueous buffer at pH 7), the “ABSORPTION λMAX” value was found to be 496 nm, the “EMISSION λMAX” value was found to be 522 nm, the ΦFL stood at 0.92 and the τFL is given as 4.0 ns. Further, in data set [1] (methanol), the ABSORPTION ε came out at 50000 M⁻¹ cm⁻¹, the “ABSORPTION λMAX” value is 498 nm and the “EMISSION λMAX” value worked out at 523 nm. Besides, in data set [2] (500 μg dye/ml), the “Structures stained in living cells” value is on record as “Dye exclusion! No dye within cell”.
Turning to “5′ (6′)-carboxy-2,7-difluoro-N,N′-bis(2,2,2-trifluoroethyl)-rhodamine [Compound 19]”, in data set [1] (aqueous buffer at pH 7), the ABSORPTION ε came out at 53000 M⁻¹ cm⁻¹, the “ABSORPTION λMAX” value was found to be 496 nm, the “EMISSION λMAX” value turned out to be 522 nm and the ΦFL stood at 0.89. Further, the τFL in data set [1] (aqueous buffer at pH 7) is reported as 3.8 ns. For the same compound, in data set [1] (methanol), the “ABSORPTION λMAX” value stood at 498 nm and the “EMISSION λMAX” value is reported as 520 nm. Moreover, the “Structures stained in living cells” value in data set [2] (50 μg dye/ml) is recorded as “Dim cellular stain with dots”.
For the compound `CNc1cc2c(cc1F)C1(OC(=O)c3ccccc31)c1cc(F)c(NC)cc1O2` [Compound 23, 2,7-Difluoro-N,N′-dimethylrhodamine], in data set [1] (aqueous buffer at pH 7), the “ABSORPTION λMAX” value was 513 nm, the “EMISSION λMAX” value is 539 nm, the ΦFL came out at 0.87 and the τFL came out at 4.0 ns. In addition, in data set [1] (methanol), the ABSORPTION ε stood at 56000 M⁻¹ cm⁻¹, the “ABSORPTION λMAX” value came to 511 nm and the “EMISSION λMAX” value was determined as 537 nm. In data set [2] (50 μg dye/ml), the “Structures stained in living cells” value is reported as “Dim cytoplasmatic stain with dots”. Also, in data set [2] (500 μg dye/ml), the “Structures stained in living cells” value was “Mitochondrial stain visible. Bright”.
